Test results reported in paper PMC6001375, “CLERK is a novel receptor kinase required for sensing of root-active CLE peptides in Arabidopsis” (Development (Cambridge, England), 2018).

Tests used:
[1] = test system: CLERK ectodomain (CLERK-ECD); assay: Isothermal titration calorimetry, CLERK ectodomain; assay type: binding, Arabidopsis thaliana; conditions: ITC, 25°C, 20 mM citrate (pH 5.0), 150 mM NaCl; 400 µM peptide into 30 µM CLERK-ECD
Description: (§1) Isolation of recombinant proteins and analytical gel filtrations were carried out as described previously ([Hazak et al., 2017]) with small adjustments. The coding sequences for BAM1-ECD (amino acids 20-637), BAM3-ECD (30-651), PXY-ECD (30-647), NIK1-ECD (32-248), NIK2-ECD (33-248), NIK3-ECD (26-238), CLERK-ECD (28-236) and At5G63710-ECD (51-224) were amplified from Arabidopsis thaliana cDNA using PfuX7 polymerase. All ECD-coding sequences were then cloned into a modified pFAST-BAC1 vector (Geneva Biotech) by GIBSON cloning, resulting in the addition of the azurocidin signal peptide sequence to the 5′-end, and of a 2×-STREP-9×HIS tag to the 3′-end of the ECD sequences. These plasmids, after being confirmed by sequencing, were transformed into Escherichia coli DH10MultiBac (Geneva Biotech) followed by the extraction of the resulting bacmids. Transfection of the bacmids into Spodoptera frugiperda Sf9 cells with Profectin (AB Vector) was carried out to produce and amplify the respective virus. Recombinant secreted expression of the proteins was carried out by addition of virus to Trichoplusia ni Tnao38 cells to reach a viral multiplicity of 1 and incubation of the cells for 3 days. […] Concentrations of the pure proteins were assessed by measuring their absorbance at 280 nm (NanoDrop Lite; Thermo Scientific) and subsequent correction with their respective extinction coefficient. […]

Arabidopsis root growth = conditions: ref Hazak et al., 2017; cited from earlier work
Source text: The incapacity of clerk loss-of-function second site mutation to suppress the brx phenotype (unlike second site bam3 or clv2-crn loss of function) is also of interest with respect to the role of CLE peptide signaling in the spatiotemporal progression of protophloem sieve element differentiation. Resistance of clerk mutants against root-active CLE peptides as well as CLERK expression in early protophloem reiterate the key role of the protophloem in CLE sensing in the root ([Hazak et al., 2017]). Yet not all CLE peptides have an equally strong effect on root growth, which correlates with their i ...

[2] = test system: BAM3 ectodomain with NIK1/2/3 ectodomains; assay: Analytical size-exclusion chromatography, BAM3 + NIK1/2/3 ectodomains; assay type: binding, Arabidopsis thaliana; conditions: Fig. S3D; 50 µM peptide; pH 5.0
Description: as §1

[3] = test system: root meristem protophloem; conditions: BAM3 necessary; ref Depuydt et al., 2013; Hazak et al., 2017; Kang and Hardtke, 2016; cited from earlier work
Source text: The endogenous CLAVATA3/EMBRYO SURROUNDING REGION (CLE) peptides of plants are secreted as propeptides and processed to yield bioactive 12-14 amino acid long ligands ([Cock and McCormick, 2001]; [Ito et al., 2006]; [Kondo et al., 2006]). The Arabidopsis thaliana genome contains 32 CLE genes, which encode 27 distinct CLE peptides ([Goad et al., 2016]; [Ito et al., 2006]; [Strabala et al., 2006]). Exogenous application of chemically synthesized CLE peptides at nanomolar concentrations frequently suppresses Arabidopsis root growth in tissue culture ([Depuydt et al., 2013]; [Fiers et al., 2005]; [ ...

| Sequence | Direct binding to CLERK ectodomain [1] | Relative strength as root-active CLE peptide (Arabidopsis root growth) | Elution of BAM3 ectodomain with NIK1/2/3 ectodomains [2] | Effect on protophloem sieve element differentiation [3] |
| --- | --- | --- | --- | --- |
| RKVPRGPDPIHN [CLE26] | no direct binding | – | – | – |
| RRVRRGSDPIHN [CLE45] | no direct binding | strongest root-active CLE peptide | elute as monomers | suppression of protophloem sieve element differentiation |
